Consider 20 molecules from patent US6767991B1, “Hepatitis C inhibitor peptides” (priority 1997, dated 2004).

Like-named read-outs stand apart in the source and are kept apart here. *1 amine or outer side, *2 acyl side, *3 side chain or, on linkers, in order; H or OH if unused. Where a SMILES comes first, the peptide text is derived from it. Where no end group is shown, it is not given here. [ ]: non-standard residue; d: D form. The star is where a group is joined. CH2(1-naphthyl) = c1ccc2c(C*)cccc2c1; Hyp = O=C(O)[C@@H]1C[C@@H](O)CN1; Chg = N[C@H](C(=O)O)C1CCCCC1; Suc = O=C(CCC(=O)[*:2])[*:1]; Tle = CC(C)(C)[C@H](N)C(=O)O; Nva = CCC[C@H](N)C(=O)O; Ac3c = NC1(C(=O)O)CC1; Boc = CC(C)(C)OC(=O)*; X6 = Ic1cccc(C*)c1; Bn = c1ccc(C*)cc1

The experiment addresses T1, HCV NS3 protease type 1b/NS4A cofactor peptide (Hepatitis C virus genotype 1b, UniProt P26663).
T1 construct: recombinant HCV NS3 protease (amino acid 1027 to 1206) was cloned in the pET11d bacterial expression vector; made in house; host or cells: E. coli BL21(DE3)pLysS
In words: Recombinant HCV NS3 protease/NS4A cofactor peptide radiometric assay. The format is biochemical, HCV genotype 1b. As to conditions: read-out: IC50. As to the method: Recombinant HCV NS3 Protease/NS4A Cofactor Peptide Radiometric Assay.
The enzyme was stored at −80° C., thawed on ice and diluted just prior to use in the assay buffer containing the NS4A cofactor peptide.
The substrate used for the NS3 protease/NS4A cofactor peptide radiometric assay, DDIVPC-SMSYTW [SEQ. ID NO. 2], is cleaved between the cysteine and the serine residues by the enzyme. The sequence DDIVPC-SMSYTW [SEQ. ID NO. 2] corresponds to the NS5A/NS5B natural cleavage site in which the cysteine residue in P2 has been substituted for a proline. The peptide substrate DDIVPC-SMSYTW [SEQ. ID NO. […] ID NO. […] [SEQ. ID NO. 5] (molar ratio enzyme: cofactor 1:100) in the absence or presence of inhibitors. The separation of substrate from products is performed by adding avidin-coated agarose beads to the assay mixture followed by filtration. […] ID NO. 4] product found in the filtrate allows for the calculation of the percentage of substrate conversion and of the percentage of inhibition.
Tris and Tris-HCl (UltraPure) were obtained from Gibco-BRL. Glycerol (UltraPure), MES and BSA were purchased from Sigma. TCEP was obtained from Pierce, DMSO from Aldrich and NaOH from Anachemia.
Assay buffer: 50 mM Tris HCl, pH 7.5, 30% (w/v) glycerol, 1 mg/mL BSA, 1 mM TCEP (TCEP added just prior to use from a 1 M stock solution in water).
Substrate: […] [SEQ. ID NO.
ID NO. 3] (˜1 nM final concentration).
The assay was performed in a 96-well polypropylene plate from Costar. Each well contained:
20 μL substrate/tracer in assay buffer;
10 μL±inhibitor in 20% DMSO/assay buffer;
10 μL NS3 protease 1b/NS4 cofactor peptide (molar ratio 1:100).
Blank (no inhibitor and no enzyme) and control (no inhibitor) were also prepared on the same assay plate.
The enzymatic reaction was initiated by the addition of the enzyme/NS4A peptide solution and the assay mixture was incubated for 40 min at 23° C. under gentle agitation. Ten (10) μL of 0.5N NaOH were added and 10 μL 1 M MES, pH 5.8 were added to quench the enzymatic reaction.
Twenty (20) μL of avidin-coated agarose beads (purchased from Pierce) were added in a Millipore MADP N65 filtration plate. The quenched assay mixture was transferred to the filtration plate, and incubated for 60 min at 23° C. under gentle agitation.
The plates were filtered using a Millipore MultiScreen Vacuum Manifold Filtration apparatus, and 40 μL of the filtrate was transferred in an opaque 96-well plate containing 60 μL of scintillation fluid per well.
The % inhibition was calculated with the following equation:
100-[(countsinh-countsblank)/(countsctl-countsblank)×100]

The mark [1] stands for this setting: Table 2, unmarked values: NS3 protease/NS4A cofactor peptide radiometric assay.
Setting [2] is: Table 1, unmarked values: NS3 protease/NS4A cofactor peptide radiometric assay.

T1 sequence (P26663 1027-1206, other chains not shown): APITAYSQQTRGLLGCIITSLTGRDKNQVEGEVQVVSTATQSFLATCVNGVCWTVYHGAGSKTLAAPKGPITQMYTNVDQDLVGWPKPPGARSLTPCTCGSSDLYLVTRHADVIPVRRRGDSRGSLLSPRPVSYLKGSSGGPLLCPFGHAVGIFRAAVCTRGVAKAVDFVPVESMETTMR

For orientation: IC50 means the concentration that inhibits the measured activity by half. Regarding `CCC[C@H](NC(=O)[C@@H]1CCCN1C(=O)[C@@H](NC(=O)[C@@H](NC(=O)[C@H](CC(=O)O)NC(=O)[C@H](CC(=O)O)NC(C)=O)[C@@H](C)CC)C(C)C)C(=O)O` (single isomer, unassigned) [compound 273], the IC50 under setting [1] was 17.5 µM. For the molecule `CC[C@H](C)[C@H](NC(=O)[C@@H](CCC(=O)O)NC(=O)[C@H](CC(=O)O)NC(C)=O)C(=O)N[C@H](C(=O)N1CCC[C@H]1C(=O)N[C@@H](CS)C(=O)O)C(C)C` [compound 105] (Ac-D[dE]IVPC-OH), under setting [2], the IC50 was 1.5 µM.

Turning to `CC[C@H](C)[C@H](NC(=O)[C@H](CC(=O)O)NC(=O)[C@H](CC(=O)O)NC(C)=O)C(=O)N[C@H](C(=O)N1C[C@H](OCc2ccccc2)C[C@H]1C(=O)N[C@@H](CS)C(=O)O)C(C)C` [compound 121] (Ac-DDIV[Hyp](Bn)C-OH), the IC50 under setting [2] amounted to 1.7 µM. Consider `CCC[C@H](NC(=O)[C@@H]1C[C@@H](OCc2cccc3ccccc23)CN1C(=O)[C@@H](NC(=O)[C@@H](NC(C)=O)C1CCCCC1)C(C)C)C(=O)O` [compound 252] (Ac-[Chg]V[Hyp](CH2(1-naphthyl))[Nva]-OH), for which the half-maximal inhibitory concentration (IC50) under setting [1] was 20 µM. For `CC[C@H](C)[C@H](NC(=O)[C@H](CC(=O)O)NC(=O)[C@H](CC(=O)O)NC(C)=O)C(=O)N[C@H](C(=O)N1CCC[C@H]1C(=O)NC1(C(=O)O)CC1)C(C)C` [compound 126] (Ac-DDIVP[Ac3c]-OH), the IC50 under setting [2] is 45 µM. For the molecule `CC[C@H](C)[C@H](NC(=O)[C@H](CCC(=O)O)NC(=O)[C@H](CC(=O)O)NC(C)=O)C(=O)N[C@H](C(=O)N1C[C@H](OCc2cccc(I)c2)C[C@H]1C(=O)NC1(C(=O)O)CC1)C(C)C` [compound 233] (Ac-DEIV[Hyp](X6)[Ac3c]-OH), the IC50 under setting [1] worked out at 0.14 µM. Regarding `CC[C@H]1C[C@@]1(NC(=O)[C@@H]1C[C@@H](OCc2cccc3ccccc23)CN1C(=O)[C@@H](NC(=O)[C@@H](NC(C)=O)C1CCCCC1)C(C)C)C(=O)O` [compound 514], the IC50 (text b180, values of Table 5, 1R,2R versus 1S,2S isomer at P1) is 27.5 µM.

Consider `CCC[C@H](NC(=O)[C@@H]1C[C@@H](OCc2ccccc2)CN1C(=O)[C@@H](NC(=O)[C@@H](NC(=O)[C@H](CC(=O)O)NC(=O)[C@H](CC(=O)O)NC(C)=O)[C@@H](C)CC)C(C)C)C(=O)O` [compound 201] (Ac-DDIV[Hyp](Bn)[Nva]-OH), for which the IC50 under setting [1] is 7.2 µM.

With `CCC[C@H](NC(=O)[C@@H]1C[C@@H](OCc2cccc3ccccc23)CN1C(=O)[C@@H](NC(=O)[C@@H](NC(=O)CCC(=O)O)[C@@H](C)CC)C(C)C)C(=O)O` [compound 221] (Suc-IV[Hyp](CH2(1-naphthyl))[Nva]-OH), the IC50 under setting [1] came out at 22 µM. Regarding `CCC[C@H](NC(=O)[C@@H]1C[C@@H](OCc2cccc3ccccc23)CN1C(=O)[C@@H](NC(=S)[C@@H](NC(=O)CNC(C)=O)[C@@H](C)CC)C(C)C)C(=O)O` [compound 236], under setting [1], the IC50 is 4 µM. For the molecule `CC(=O)N[C@H](C(=O)N[C@H](C(=O)N1C[C@H](Oc2ccc(I)cc2)C[C@H]1C(=O)NC1(C(=O)O)CC1)C(C)C)C1CCCCC1` [compound 249], the IC50 under setting [1] was determined as 9.7 µM. The same measure, in the same setting: to `CC[C@H](C)[C@H](NC(=O)[C@@H](CCC(=O)O)NC(=O)[C@H](CC(=O)O)NC(C)=O)C(=O)N[C@H](C(=O)N1C[C@H](OCc2ccccc2)C[C@H]1C(=O)N[C@@H](CS)C(=O)O)C(C)C` [compound 260] (Ac-D[dE]IV[Hyp](Bn)C-OH) belongs 0.18 µM. Take `CC[C@H](C)[C@H](NC(=O)[C@@H](NC(=O)[C@H](CC(=O)O)NC(C)=O)C(C)(C)C)C(=O)N[C@H](C(=O)N1CCC[C@H]1C(=O)N[C@@H](CS)C(=O)O)C(C)C` [compound 108] (Ac-D[Tle]IVPC-OH): under setting [2], the IC50 is 31 µM. `CC(=O)N[C@H](C(=O)N[C@H](C(=O)N1C[C@H](Oc2ccccc2Br)C[C@H]1C(=O)NC1(C(=O)O)CC1)C(C)C)C1CCCCC1` [compound 239]: under setting [1], the IC50 was 27 µM. For the molecule `CC(C)(C)OC(=O)N[C@H](C(=O)N[C@H](C(=O)N1C[C@H](OCc2cccc3ccccc23)C[C@H]1C(=O)NC1(C(=O)O)CC1)C1CCCCC1)C1CCCCC1` [compound 235] (Boc-[Chg][Chg][Hyp](CH2(1-naphthyl))[Ac3c]-OH), the IC50 under setting [1] was determined as 12 µM. On to `CC(=O)N[C@@H](CC(=O)O)C(=O)N[C@@H](CCC(=O)O)C(=O)N[C@H](C(=O)N[C@@H](CCC(=O)O)C(=O)N[C@@H](CCC(=O)O)C(=O)N[C@@H](CS)C(=O)O)C1CCCCC1` [compound 131] (Ac-DE[Chg]EEC-OH), for which the IC50 under setting [2] came out at 24 µM. On the same count and under the same terms, to `CC[C@H](C)[C@H](NC(=O)[C@@H](CC(=O)O)NC(=O)[C@H](CC(=O)O)NC(C)=O)C(=O)N[C@H](C(=O)N1CCC[C@H]1C(=O)N[C@@H](CS)C(=O)O)C(C)C` [compound 104] (Ac-D[dD]IVPC-OH) belongs 8.5 µM. In the case of `CCC[C@H](NC(=O)[C@@H]1C[C@@H](OCc2cccc3ccccc23)CN1C(=O)[C@@H](NC(=O)[C@@H](NC(=O)[C@H](CC(=O)O)NC(=O)[C@H](CC(=O)O)NC(C)=O)[C@@H](C)CC)C(C)C)C(=O)O` [compound 207] (Ac-DDIV[Hyp](CH2(1-naphthyl))[Nva]-OH), the IC50 under setting [1] stood at 0.39 µM. On to Ac-DDIVIC [compound 119], for which, under setting [2], the concentration for half-maximal inhibition (IC50) stood at 90 µM.

In the case of `CCC[C@H](NC(=O)[C@@H]1C[C@@H](OCc2ccccc2)CN1C(=O)[C@@H](NC(=O)[C@@H](NC(=O)[C@@H](CCC(=O)O)NC(=O)[C@H](CC(=O)O)NC(C)=O)C1CCCCC1)C(C)C)C(=O)O` [compound 211] (Ac-D[dE][Chg]V[Hyp](Bn)[Nva]-OH), the IC50 under setting [1] was determined as 0.12 µM.
